Test results: patent US4965280A, “Antifungal carbinols” (E. I. Du Pont de Nemours and Company, priority 1989, dated 1990)
Like-named read-outs stand apart in the source and are kept apart here.

Assays:
Phytophthora infestans = assay: whole plant or invertebrate; type: in vivo; settings: Phytophthora infestans, in Solanum lycopersicum, read-out: disease control rating, Ex. H, 100 PPM
[1] = test system: Cercosporidium personatum; assay: Example B Peanut Late Leafspot; type: in vivo; settings: Nothopassalora personata; 20 PPM; read-out: disease control rating, Ex. B
In short: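 Each compound is first taken up in acetone, which makes up 6% of the final spray volume. It is then suspended in purified water with 250 ppm TREM 014 at 100 or 20 ppm. Seedlings of peanut are sprayed until run-off.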

BARNYARDGRASS = assay: Test C rice paddy; type: in vivo, Echinochloa crusgalli; settings: Echinochloa crus-galli, 504 h, 21 days, read-out: plant response
Source text: (§1) Sixteen cm diameter Airlite plastic pots were partially filled with Tama slit loam soil and the soil saturated with water. Japonica and Indica rice seedlings a the 2.0 to 2.5 leaf stage were transplanted into 1/3 of the pots. Into another third of the pots were transplanted seedling or sprouted tubers of water plantain (Alisma trivale), Scripus (Scirpus paludosus), Cyperus (Cyperus esculentus), and arrowhead (Sagittaria spp.). The remaining pots were planted with barnyardgrass (Echinochloa crusgalli) seeds and sprouted tubes of water chestnut (Eleocharis spp.). These weeds all represent major rice weeds or genera of weeds important in rice. Three to four days after planting, the water level was raised to 3 cm (about 1200 ml/pot) and maintained a this level throughout the test. Chemical treatments were applied directly to the paddy water, within 24 hours of raising the water, after being formulated in a nonphytotoxic solvent. The pots were maintained in the greenhouse.

[2] = test system: Candida albicans ATCC 11651; assay: In vivo systemic Candida infection in mice, primary assay; set-up: species or system Candida albicans; CF-1 female mice; settings: Candida albicans, 150 mg/kg per day, read-out: % Survival
In short: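 CF-1 female mice (20 g, 10 per group) were infected IV with 0.2 ml of 1×10^7/ml C. albicans ATCC 11651, then given test compound subcutaneously at 50 or 150 mg/kg/day at 1 and 6 h post-infection and once daily for three more days. Survival was followed for 21 days against infected untreated mice; ≥70% protection at 14 days was scored active.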

Rhizoctonia solani [3] = assay: Example F rice sheath blight; type: in vivo; settings: Rhizoctonia solani, 144 h, read-out: disease control rating, Ex. F
In short: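 Rice seedlings receive a run-off spray of compound suspended at 100 or 20 ppm. The carrier is purified water containing 250 ppm of a polyhydric alcohol ester surfactant, with acetone making up 6% of the final volume.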

Sclerotium rolfsii = assay: Example M southern blight; type: in vivo; settings: Agroathelia rolfsii, 336 h; 5 kg/ha; read-out: disease control rating, Ex. M
Protocol: […] Seeds and soil were then inoculated with a mixture of sand, cereal and mycelium of the fungus Sclerotium rolfsii, causal agent of sourthern blight, and incubated in a growth chamber at 30° C. for 14 days. Disease ratings were then made.

[4] = test system: Erysiphe graminis f. sp. tritici; assay: Example D wheat powdery mildew; type: in vivo; settings: Blumeria graminis, 144 h; 20 PPM; read-out: disease control rating, Ex. D
In short: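 Wheat seedlings receive a run-off foliar spray of compound suspended in purified water at 100 or 20 ppm. The carrier holds 250 ppm TREM 014 plus acetone amounting to 6% of final volume.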

Rhizoctonia solani [5] = assay: Example K cotton blight; type: in vivo; settings: 336 h, 5 kg/ha, read-out: disease control rating, Ex. K
Protocol: […] Seeds and soil were then inoculated with a mixture of sand, cereal and mycelium of the fungus Rhizoctonia solani, causal agent of cotton blight, and incubated in a growth chamber at 30° C. for 14 days. Disease ratings were then made.

ARROWHEAD = assay: Test C rice paddy; type: in vivo, Sagittaria spp.; settings: Sagittaria, 504 h, 21 days, read-out: plant response
Source text: as §1

Puccinia recondita = assay: Example G wheat leaf rust; type: in vivo; settings: 20 PPM, read-out: disease control rating, Ex. G
Pyricularia oryzae = assay: whole plant or invertebrate; type: in vivo; settings: Pyricularia oryzae, 120 h
Plasmorpara viticola = assay: Example I grape downy mildew; type: in vivo; settings: read-out: disease control rating, Ex. I
In short: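 Grape seedlings sprayed to run-off; test suspension 100 or 20 ppm compound, acetone 6% v/v final, 250 ppm TREM 014 in purified water.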

RICE JAP EFF = assay: Test C rice paddy; type: in vivo, Japonica rice; settings: Oryza sativa, 504 h, 21 days, read-out: plant response
Source text: as §1

Question: What does the source list for `C=C(c1ccccc1Cl)C(O)(Cn1cncn1)c1ccc(Cl)cc1Cl` (centres unmarked) [Example 33, 2-(2,4-Dichlorophenyl)-3-(2-chlorophenyl)-1-(1H-1,2,4-triazol-1-yl)-3-buten-2-ol]?
Answer: pest or weed control at 100 ppm (Phytophthora infestans): 0%; pest or weed control at 20 ppm [1]: 99%; pest or weed control at 64 g/ha (BARNYARDGRASS; 0064 G/HA): 0%; pest or weed control at 125 g/ha (BARNYARDGRASS; 0125 G/HA): 10%; pest or weed control at 250 g/ha (BARNYARDGRASS; 0250 G/HA): 80%; pest or weed control at 500 g/ha (BARNYARDGRASS; 0500 G/HA): 70%; pest or weed control at 1000 g/ha (BARNYARDGRASS; 1000 G/HA): 95%; responders at 150 mg/kg ([2]; ATCC11651, 168 h, day 7): 100%; responders at 150 mg/kg ([2]; ATCC11651, 336 h, day 14): 100%; responders at 150 mg/kg ([2]; ATCC11651, 504 h, day 21): 100%; pest or weed control at 20 ppm (Rhizoctonia solani [3]; 20 PPM): 29%; pest or weed control at 100 ppm (Rhizoctonia solani [3]; 100 PPM): 60%; pest or weed control at 5000 g/ha (Sclerotium rolfsii): 0%; pest or weed control at 20 ppm [4]: 89%; pest or weed control at 5000 g/ha (Rhizoctonia solani [5]): 0%; pest or weed control at 64 g/ha (ARROWHEAD; 0064 G/HA): 0%; pest or weed control at 125 g/ha (ARROWHEAD; 0125 G/HA): 0%; pest or weed control at 250 g/ha (ARROWHEAD; 0250 G/HA): 0%; pest or weed control at 500 g/ha (ARROWHEAD; 0500 G/HA): 0%; pest or weed control at 1000 g/ha (ARROWHEAD; 1000 G/HA): 0%; pest or weed control at 20 ppm (Puccinia recondita): 100%; pest or weed control at 20 ppm (Pyricularia oryzae; read-out: disease control rating, Ex. E, 20 PPM): 0%; pest or weed control at 100 ppm (Pyricularia oryzae; read-out: disease control rating, Ex. E, 100 PPM): 0%; pest or weed control at 100 ppm (Plasmorpara viticola): 24%; pest or weed control at 64 g/ha (RICE JAP EFF; 0064 G/HA): 0%; pest or weed control at 125 g/ha (RICE JAP EFF; 0125 G/HA): 0%; pest or weed control at 250 g/ha (RICE JAP EFF; 0250 G/HA): 0%; pest or weed control at 500 g/ha (RICE JAP EFF; 0500 G/HA): 30%; pest or weed control at 1000 g/ha (RICE JAP EFF; 1000 G/HA): 60%
